{"source": "patent US8846704B2", "about": "“Thiopyrimidine-based compounds and uses thereof” (YM Biosciences Austraila Pty Ltd, priority 2007, dated 2014)", "key": {"human CSF1-R (FMS)": {"target": "T1, human CSF1-R (FMS) (Homo sapiens, UniProt P07333)", "T1 construct": "from codon I553 to Q961; GST (N); made in house; host or cells: Sf9 insect cells (baculovirus)", "T1 sequence (P07333 553-961)": "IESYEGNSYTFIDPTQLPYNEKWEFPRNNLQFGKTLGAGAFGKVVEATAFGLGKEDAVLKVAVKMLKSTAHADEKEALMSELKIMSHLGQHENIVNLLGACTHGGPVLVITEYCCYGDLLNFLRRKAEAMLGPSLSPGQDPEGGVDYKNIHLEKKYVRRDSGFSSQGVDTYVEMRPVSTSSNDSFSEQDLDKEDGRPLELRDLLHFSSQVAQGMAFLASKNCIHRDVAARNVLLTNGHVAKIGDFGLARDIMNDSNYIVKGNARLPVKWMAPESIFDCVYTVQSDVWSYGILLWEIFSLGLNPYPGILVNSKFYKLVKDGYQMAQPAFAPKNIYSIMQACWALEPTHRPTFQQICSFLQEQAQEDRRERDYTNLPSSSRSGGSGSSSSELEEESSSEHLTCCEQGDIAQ", "test": "Alphascreen tyrosine kinase enzyme assay, CSF-1R (FMS) kinase domain", "assay_type": "biochemical", "conditions": "read-out: FMS, FLT3, or HCK IC50_nM (FMS)", "experimental": "(§1) For screening purposes, compounds (in 100% DMSO) were warmed at 37 degrees for at least 20 minutes before use. A […] stock was initially made in assay buffer, where the final concentration of DMSO was 0.3%. The stocks were then diluted in 384 well Optiplates (Packard) where the final concentration of the compound was […].\nThe kinase domain of human CSF1-R from codon I553 to Q961 was cloned into the pDest20 expression vector (Invitrogen). The CSF1-R plasmid was then transformed into competent DH10Bac cells (Gibco), and the recombinant baculovirus produced prepared for transfection into Sf9 insect cells.\nBaculovirus preparations from each of the constructs were infected into either one or five liters of Sf9 cells (Invitrogen) grown in SF-900 medium (Invitrogen) to a cell density of approximately 1-2×10^6 cells/ml. Cells were infected with virus at a MOI of 0.8-3.0. Cells were harvested and lysed. Tyrosine kinase domains were purified by affinity chromatography on a glutathione-agarose column (Scientifix Pty. Ltd. catalog #: GSH-200).\n(§2) Kinase assays were performed in 384 well Optiplates (Packard) using an Alphascreen Protein Tyrosine Kinase PY100 detection kit The compounds were pre-incubated with affinity purified PTK domain in the presence of phosphotyrosine assay buffer (10 mM HEPES, pH 7.5, 100 mM MgCl2, 25 mM NaCl, […] and 0.1% Tween 20) for 20 minutes. The compounds were then incubated with substrate in the presence of ATP. The substrate used was susbtrate-1 with the sequence biotin-EGPWLEEEEEAYGWMDF-NH2 [SEQ. ID. NO. 13] (final concentration […]). For HCK 80 μm ATP was used and incubated for 60 minutes. Alphascreen phosphotyrosine acceptor beads followed by streptavidin donor beads at a concentration of 1/100 in stop buffer were added to each well under subdued light and incubated for 2-3 hours., The Alphascreen plates were read on a Packard Fusion Alpha instrument."}, "FLT-3 tyrosine kinase": {"target": "T2, FLT-3 tyrosine kinase (Homo sapiens, UniProt P36888)", "T2 construct": "purchased Upstate Cell Signalling Solutions, CA, USA 14-500", "T2 sequence (P36888 27-993)": "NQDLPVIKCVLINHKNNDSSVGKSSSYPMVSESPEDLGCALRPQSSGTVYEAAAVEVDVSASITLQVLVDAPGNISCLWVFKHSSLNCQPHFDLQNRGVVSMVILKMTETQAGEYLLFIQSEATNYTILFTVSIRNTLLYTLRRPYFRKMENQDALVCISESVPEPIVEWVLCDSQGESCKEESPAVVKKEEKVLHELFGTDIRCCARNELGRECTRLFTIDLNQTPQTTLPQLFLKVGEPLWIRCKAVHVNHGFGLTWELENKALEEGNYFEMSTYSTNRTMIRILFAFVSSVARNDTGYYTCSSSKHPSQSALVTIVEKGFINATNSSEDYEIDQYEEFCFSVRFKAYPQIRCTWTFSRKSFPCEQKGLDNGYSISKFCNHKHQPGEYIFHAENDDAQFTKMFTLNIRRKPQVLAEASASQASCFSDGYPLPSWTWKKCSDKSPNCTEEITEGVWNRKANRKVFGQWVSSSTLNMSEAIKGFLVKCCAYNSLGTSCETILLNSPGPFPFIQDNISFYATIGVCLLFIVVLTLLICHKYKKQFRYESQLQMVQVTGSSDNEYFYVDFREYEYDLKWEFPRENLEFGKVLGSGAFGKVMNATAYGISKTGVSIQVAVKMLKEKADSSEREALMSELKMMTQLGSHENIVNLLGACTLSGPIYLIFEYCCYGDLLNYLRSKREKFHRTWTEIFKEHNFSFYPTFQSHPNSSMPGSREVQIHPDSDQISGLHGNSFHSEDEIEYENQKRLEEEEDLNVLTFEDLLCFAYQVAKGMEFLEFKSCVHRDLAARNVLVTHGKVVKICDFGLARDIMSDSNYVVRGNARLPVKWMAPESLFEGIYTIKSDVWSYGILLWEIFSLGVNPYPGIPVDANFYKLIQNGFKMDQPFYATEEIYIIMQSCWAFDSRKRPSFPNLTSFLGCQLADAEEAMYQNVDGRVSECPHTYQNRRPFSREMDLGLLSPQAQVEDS", "test": "Alphascreen tyrosine kinase enzyme assay, FLT-3", "assay_type": "biochemical", "conditions": "FLT3; read-out: FMS, FLT3, or HCK IC50_nM (FLT3)", "experimental": "as §1\nFLT-3 tyrosine kinase enzyme was purchased from Upstate Cell Signalling Solutions, CA, USA (flt-3 catalog #: 14-500).\nas §2"}}}
{"smiles": "C=CC(=O)Nc1ccc(Sc2ccnc(Nc3cccc(N4CCOCC4)c3)n2)cc1", "note": "[Compound 77, N-(4-(2-(3-morpholinophenylao)pyrimidin-4-ylthio)phenyl)acrylamide]", "values": [{"measurement": "IC50", "setting": "human CSF1-R (FMS)", "value": "< 500", "unit": "nM"}]}
{"smiles": "OCc1cccc(Sc2ccnc(Nc3ccc(N4CCOCC4)cc3)n2)c1", "note": "[Compound 62, (3-(2-(4-Morpholinophenylamino)pyrimidin-4-ylthio)phenyl)methanol]", "values": [{"measurement": "IC50", "setting": "FLT-3 tyrosine kinase", "value": "< 100", "unit": "nM"}]}
{"smiles": "N#CCNCc1cccc(Sc2ccnc(Nc3ccc(N4CCOCC4)cc3)n2)c1", "note": "[Compound 68, 2-(3-(2-(4-morpholinophenylao)pyrimidin-4-ylthio)benzylao)acetonitrile]", "values": [{"measurement": "IC50", "setting": "FLT-3 tyrosine kinase", "value": "< 500", "unit": "nM"}]}
{"smiles": "OCc1ccc(Sc2ccnc(Nc3ccc(N4CCOCC4)cc3)n2)cc1", "note": "[Compound 67, (4-(2-(4-morpholinophenylao)pyrimidin-4-ylthio)phenyl)methanol]", "values": [{"measurement": "IC50", "setting": "FLT-3 tyrosine kinase", "value": "< 100", "unit": "nM"}]}
{"smiles": "C=CC(=O)Nc1ccc(Sc2ccnc(Nc3cc(C)cc(C)c3)n2)cc1", "note": "[Compound 82, N-(4-(2-(3,5-dimethylphenylao)pyrimidin-4-ylthio)phenyl)acrylamide]", "values": [{"measurement": "IC50", "setting": "human CSF1-R (FMS)", "value": "< 500", "unit": "nM"}]}
